The assay has as its target Sodium-dependent dopamine transporter (Rattus norvegicus, UniProt P23977). In words: In vitro binding affinity to Dopamine transporter in rat striatal homogenates using [125I]IPT20 as the ligand.

One may read the Ki as the dissociation constant of the complex between target and ligand, obtained from inhibition or displacement. Read a high Ki as weaker binding.

Sequence of Sodium-dependent dopamine transporter (P23977 whole entry, looked up): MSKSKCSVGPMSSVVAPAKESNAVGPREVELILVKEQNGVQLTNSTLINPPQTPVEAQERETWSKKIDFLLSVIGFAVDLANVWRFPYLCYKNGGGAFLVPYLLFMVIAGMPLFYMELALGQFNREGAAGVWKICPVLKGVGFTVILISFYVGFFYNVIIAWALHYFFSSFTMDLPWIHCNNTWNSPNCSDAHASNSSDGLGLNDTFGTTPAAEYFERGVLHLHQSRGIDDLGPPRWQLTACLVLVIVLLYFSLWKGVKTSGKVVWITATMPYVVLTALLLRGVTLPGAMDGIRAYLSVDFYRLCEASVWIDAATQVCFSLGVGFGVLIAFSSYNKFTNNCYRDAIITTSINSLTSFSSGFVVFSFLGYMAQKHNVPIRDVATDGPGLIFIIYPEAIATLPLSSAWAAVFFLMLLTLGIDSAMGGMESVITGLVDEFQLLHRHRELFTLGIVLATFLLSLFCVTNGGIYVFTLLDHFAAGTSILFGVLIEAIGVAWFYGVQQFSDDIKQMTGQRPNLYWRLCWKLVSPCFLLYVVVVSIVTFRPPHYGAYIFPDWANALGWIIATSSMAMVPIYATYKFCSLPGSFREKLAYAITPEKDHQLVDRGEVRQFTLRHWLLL

For the molecule `CN1C2CCC1[C@@H](CN(CCS)CCNCCS)[C@@H](c1ccc(Cl)cc1)C2` (stereo partly specified), the Ki turned out to be 7 nM.

The values are drawn from ChEMBL document CHEMBL1130020, “Synthesis and characterization of technetium-99m-labeled tropanes as dopamine transporter-imaging agents” (J Med Chem, 1997).
